ChEMBL document CHEMBL5506044, “Ligandability Assessment of IL-1β by Integrated Hit Identification Approaches” (J Med Chem, 2024)
Bridge positions count the residues as written; N and C are the ends. Peptide text beside a SMILES is read from it.

Columns and labels:
Interleukin-1 beta [1] = molecular target: T1, Interleukin-1 beta (Homo sapiens, UniProt P01584)
Interleukin-1 beta [2] = molecular target: T1, Interleukin-1 beta; remark: listed apart in the source
Description: Antagonist activity at human recombinant His-tagged wild type IL-1 beta assessed as inhibition of IL-1 beta/Alexa 647 labeled human IL-1R1 (1 to 332) interaction preincubated with IL-1 beta for 1 hr followed by IL-1R1 addition and measured after 1 hr by TR-FRET assay

Interleukin-1 alpha = molecular target: T2, Interleukin-1 alpha (Homo sapiens, UniProt P01583)
T2 sequence (P01583 whole entry): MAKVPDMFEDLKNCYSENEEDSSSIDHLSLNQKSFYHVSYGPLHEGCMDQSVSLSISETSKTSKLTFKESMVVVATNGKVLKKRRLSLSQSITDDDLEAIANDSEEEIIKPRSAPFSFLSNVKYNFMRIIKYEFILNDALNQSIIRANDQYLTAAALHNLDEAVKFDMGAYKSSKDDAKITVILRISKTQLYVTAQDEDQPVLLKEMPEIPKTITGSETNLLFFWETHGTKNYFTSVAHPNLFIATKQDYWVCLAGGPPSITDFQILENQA
Description: Antagonist activity at human recombinant His-tagged wild type IL-1 alpha assessed as inhibition of IL-1 alpha/Alexa 647 labeled human IL-1R1 (1 to 332) interaction preincubated with IL-1 alpha for 1 hr followed by IL-1R1 addition and measured after 1 hr by TR-FRET assay

Interleukin-1 beta [3] = molecular target: T1, Interleukin-1 beta; remark: listed apart in the source
Description: Antagonist activity at human IL-1 beta assessed as inhibition of interaction of IL-1beta/IL-1R1 expressed in HEK293-Blue cells by measuring reduction in SEAP activity preincubated with IL-1 beta for 1 hr followed by incubation with cells and measured after overnight by reporter gene assay

Interleukin-1 beta [4] = molecular target: T1, Interleukin-1 beta; remark: listed apart in the source
Description: Antagonist activity at human IL-1 beta assessed as inhibition of interaction of IL-1 beta/IL-1R1 expressed in NHDF cells by measuring reduction in IL-6 production preincubated with IL-1 beta for 1 hr followed by incubation with cells and measured after 6 hrs by ELISA

T1 sequence (P01584 117-269 limits assumed): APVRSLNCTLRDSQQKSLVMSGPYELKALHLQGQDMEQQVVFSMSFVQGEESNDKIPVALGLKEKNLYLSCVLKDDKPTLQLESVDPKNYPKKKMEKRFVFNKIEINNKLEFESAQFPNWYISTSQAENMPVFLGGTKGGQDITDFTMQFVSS

| SMILES | Ki (Interleukin-1 beta [1]) [µM] | IC50 (Interleukin-1 beta [2]) [µM] | IC50 (Interleukin-1 alpha) [µM] | other results |
| --- | --- | --- | --- | --- |
| OC(c1ccc(OC(F)F)cc1)(c1cccc(Br)c1)c1cc[nH]n1 (racemic) | > 1000 | – | – | – |
| CC(C)c1cc(-c2cc(C(=O)O)cn3cc(C(=O)N4CCN(S(=O)(=O)c5ccccc5)CC[C@@H]4C(=O)NCCN4CCOCC4)nc23)ccc1C=O | – | 78.4 | > 200 | – |
| Cc1cc(O)c(C(c2cc(C3CC(C(=O)O)C3)ccc2O)c2c[nH]nc2C(=O)O)cc1C (racemic) | 43 | – | – | – |
| CC(C)c1cc(-c2cc(C(=O)O)cn3cc(C(=O)N4CCCN(S(=O)(=O)c5ccccc5)CC4)nc23)ccc1C=O | – | > 200 | > 200 | – |
| Cc1ccc2c(c1)NC(=O)[C@@]2(c1cn[nH]c1)c1cc(-c2ccc(C(=O)O)cc2C(=O)O)ccc1O | < 10 | – | – | IC50 (Interleukin-1 beta [3]): 5.3 µM; IC50 (Interleukin-1 beta [4]): 7.9 µM |
| CC(C)c1cccc(-c2cc(C(=O)O)cn3cc(C(=O)N4CCN(S(=O)(=O)c5ccccc5)CCC4C(=O)NCCN4CCOCC4)nc23)c1 (configuration not stated) | – | > 200 | – | – |

Now from value to molecule, other results behind:

| Ki (Interleukin-1 beta [1]) [µM] | IC50 (Interleukin-1 beta [2]) [µM] | IC50 (Interleukin-1 alpha) [µM] | SMILES | other results |
| --- | --- | --- | --- | --- |
| – | 11 | – | CC(C)c1cc(-c2cc(C(=O)O)cn3cc(C(=O)N4CCN(S(=O)(=O)c5ccccc5)CCC4C(=O)NCCN4CCOCC4)nc23)ccc1C=O (racemic) | – |
| – | 1.2 | > 200 | O=Cc1ccc(-c2cc(C(=O)O)cn3cc(C(=O)N4CCN(S(=O)(=O)c5ccccc5)CC[C@H]4C(=O)NCCN4CCOCC4)nc23)cc1C(F)(F)F | – |
| – | 14 | > 200 | NCCCC[C@H](NC(=O)CNC(=O)[C@@H]1CSCC(=O)N[C@@H](Cc2ccccc2)C(=O)N[C@@H](Cc2c[nH]c3ccccc23)C(=O)N[C@@H](CC(=O)O)C(=O)N[C@@H](CO)C(=O)N[C@@H](Cc2c[nH]c3ccccc23)C(=O)NCC(=O)N[C@@H](Cc2ccc(O)cc2)C(=O)N[C@@H](Cc2c[nH]c3ccccc23)C(=O)N[C@@H](Cc2ccc(O)cc2)C(=O)NCC(=O)N2CCC[C@H]2C(=O)N[C@@H](Cc2c[nH]c3ccccc23)C(=O)N[C@@H](CC(=O)O)C(=O)N1)C(N)=O ({CH2CO}-FWDSWGYWYGPWDCGK-NH2; thioether N-14) | – |
| – | 8.3 | 99 | CC(C)c1cc(-c2cc(C(=O)O)cn3cc(C(=O)N4CCN(S(=O)(=O)c5ccccc5)CC[C@H]4C(=O)NCCN4CCOCC4)nc23)ccc1C=O | – |
